We go through 14 compounds from patent publication US10407429B2, “Pyrazolo[1,5-a]triazin-4-amine derivatives useful in therapy” (Curovir AB, priority 2015, dated 2019).

SMILES strings stand for the structures.

Common to all, as to type: cell-based
One experiment has as its system Enterovirus 68. Put plainly: Antiviral CPE assay in mammalian cell culture. The conditions noted are these: Enterovirus D, EV68, read-out: inhibition capacity (IC50) EV68.
The test system of another experiment is polio virus Sabin 1. Put plainly: organism not typed. The conditions noted are these: read-out: inhibition capacity (IC50) Polio 1.
The subject of a further experiment is coxsackie B3 virus. Put plainly: Antiviral CPE assay in mammalian cell culture. The note with it: Enterovirus B, B3, read-out: inhibition capacity (IC50) B3.
A further experiment relates to coxsackie B2 virus. Put plainly: Antiviral CPE assay in mammalian cell culture. The conditions noted are these: read-out: inhibition capacity (IC50) B2.
For the next experiment, the system named is Enterovirus 71. Put plainly: Antiviral CPE assay in mammalian cell culture. The note with it: Enterovirus A, EV71, prevention of viral CPE, read-out: inhibition capacity (IC50) EV71.
For another experiment, the system named is coxsackie B 4 virus. Put plainly: Antiviral CPE assay in mammalian cell culture. The note with it: Enterovirus B, B4, read-out: inhibition capacity (IC50) B4.
The next experiment concerns Enterovirus 30. As to the kind of experiment: Antiviral CPE assay in mammalian cell culture. The note with it: Enterovirus, read-out: inhibition capacity (IC50) EV30.
Another experiment has as its system coxsackie B1 virus. Put plainly: Antiviral CPE assay in mammalian cell culture. The note with it: read-out: inhibition capacity (IC50) Bl.
The subject of another experiment is coxsackie B5virus. Put plainly: Antiviral CPE assay in mammalian cell culture. The conditions noted are these: read-out: inhibition capacity (IC50) B5.
Another experiment concerns Enterovirus 6. As to the kind of experiment: Antiviral CPE assay in mammalian cell culture. The note with it: prevention of viral CPE, read-out: inhibition capacity (IC50) EV6.

For the compound `COc1ccc(-c2c(C)nn3c(NCc4cc[n+]([O-])cc4)nc(C)nc23)cc1OC` [Example 12, 8-(3,4-dimethoxyphenyl)-2,7-dimethyl-N-[(1-oxidopyridin-1-ium-4-yl)methyl]pyrazolo[1,5-a][1,3,5]triazin-4-amine], the IC50 with Enterovirus 68, with polio virus Sabin 1, in the experiment with coxsackie B3 virus, with coxsackie B2 virus, in the experiment with Enterovirus 71 and with coxsackie B 4 virus was < 1 µM each time. The half-maximal inhibitory concentration (IC50) in the experiment with Enterovirus 30, with coxsackie B1 virus and with coxsackie B5virus was < 1 µM each time.
Take `CCC(=O)NS(=O)(=O)c1ccc(CNc2nc(C)nc3c(-c4ccc(OC)c(OC)c4)c(C)nn23)cc1` [Example 25, N-[4-[[[8-(3,4-dimethoxyphenyl)-2,7-dimethyl-pyrazolo[1,5-a][1,3,5]triazin-4-yl]amino]methyl]phenyl]sulfonylpropanamide]: the concentration for half-maximal inhibition (IC50) – broadly, the concentration that inhibits the measured activity by half – was < 1 µM in the experiment on Enterovirus 68; > 1 µM with polio virus Sabin 1; > 1 µM in the experiment on coxsackie B3 virus; > 1 µM in the experiment with Enterovirus 6; > 1 µM in the experiment on coxsackie B2 virus; > 1 µM in the experiment with Enterovirus 71. In addition, the IC50 with coxsackie B 4 virus, in the experiment on Enterovirus 30, with coxsackie B1 virus and in the experiment on coxsackie B5virus was > 1 µM each time.
Consider `COc1ccc(-c2c(C)nn3c(NCC4CCNCC4)nc(C)nc23)cc1OC` [Example 29, 8-(3,4-dimethoxyphenyl)-2,7-dimethyl-N-[(piperidin-4-yl)methyl]pyrazolo[1,5-a][1,3,5]triazin-4-amine], for which the IC50 in the experiment with Enterovirus 68, with polio virus Sabin 1, with coxsackie B3 virus, in the experiment on Enterovirus 6, in the experiment with coxsackie B2 virus and with Enterovirus 71 was > 1 µM throughout. For the same compound, the half-inhibitory concentration (IC50) in the experiment with coxsackie B 4 virus, in the experiment on Enterovirus 30, in the experiment on coxsackie B1 virus and with coxsackie B5virus was > 1 µM each time.
For `COc1ccc(-c2c(C)nn3c(NCc4ccccc4)nc(C)nc23)cc1OC` [Example 20, N-benzyl-8-(3,4-dimethoxyphenyl)-2,7-dimethyl-pyrazolo[1,5-a][1,3,5]triazin-4-amine], the IC50 in the experiment on Enterovirus 68, with polio virus Sabin 1, in the experiment on coxsackie B3 virus, with Enterovirus 6, in the experiment on coxsackie B2 virus and with Enterovirus 71 was < 0.1 µM each time. Also, the IC50 in the experiment with coxsackie B 4 virus is < 0.01 µM; in the experiment with Enterovirus 30 it was < 0.1 µM; in the experiment with coxsackie B1 virus, < 0.1 µM; with coxsackie B5virus, < 0.1 µM.
As to `COc1ccc(-c2c(C)nn3c(NCc4ccc(C)cc4)nc(C)nc23)cc1OC` [Example 3, 8-(3,4-dimethoxyphenyl)-2,7-dimethyl-N-(p-tolylmethyl)pyrazolo[1,5-a][1,3,5]triazin-4-amine], the half-inhibitory concentration (IC50) was < 0.1 µM with Enterovirus 68; < 0.1 µM in the experiment with polio virus Sabin 1; < 0.1 µM in the experiment on coxsackie B3 virus; < 1 µM with Enterovirus 6; < 0.1 µM in the experiment on coxsackie B2 virus; < 0.1 µM in the experiment on Enterovirus 71. Besides, the half-maximal inhibitory concentration (IC50) in the experiment with coxsackie B 4 virus, in the experiment on Enterovirus 30, in the experiment on coxsackie B1 virus and in the experiment on coxsackie B5virus was < 0.1 µM in each case.
As to `COc1ccc(-c2c(C)nn3c(NCc4ccc(NC(C)=O)cc4)nc(C)nc23)cc1OC` [Example 9, N-[4-[[[8-(3,4-dimethoxyphenyl)-2,7-dimethyl-pyrazolo[1,5-a][1,3,5]triazin-4-yl]amino]methyl]phenyl]acetamide], the IC50 is < 0.1 µM in the experiment with Enterovirus 68; < 0.01 µM in the experiment on polio virus Sabin 1; < 0.1 µM in the experiment on coxsackie B3 virus; < 0.1 µM with Enterovirus 6; < 0.1 µM in the experiment with coxsackie B2 virus; < 0.1 µM with Enterovirus 71. Besides, the 50% inhibitory concentration (IC50) was < 0.1 µM with coxsackie B 4 virus, < 0.1 µM with Enterovirus 30, < 1 µM in the experiment on coxsackie B1 virus and < 0.1 µM in the experiment on coxsackie B5virus.
With `COc1ccc(-c2c(C)nn3c(NCc4ccc(NS(C)(=O)=O)cc4)nc(C)nc23)cc1OC` [Example 19, N-[4-[[[8-(3,4-dimethoxyphenyl)-2,7-dimethyl-pyrazolo[1,5-a][1,3,5]triazin-4-yl]amino]methyl]phenyl]methanesulfonamide], the IC50 is < 0.1 µM with Enterovirus 68; < 0.1 µM in the experiment on polio virus Sabin 1; < 0.1 µM in the experiment with coxsackie B3 virus; < 1 µM in the experiment on Enterovirus 6; < 0.1 µM in the experiment with coxsackie B2 virus; < 0.01 µM in the experiment on Enterovirus 71. For the same compound, the IC50 in the experiment on coxsackie B 4 virus was < 0.01 µM; in the experiment on Enterovirus 30 it was < 0.1 µM; in the experiment with coxsackie B1 virus it was < 0.1 µM; in the experiment with coxsackie B5virus it was < 1 µM.
`COc1ccc(-c2c(C)nn3c(NCc4cccs4)nc(C)nc23)cc1OC` [Example 21, 8-(3,4-dimethoxyphenyl)-2,7-dimethyl-N-(2-thienylmethyl)pyrazolo[1,5-a][1,3,5]triazin-4-amine]: the IC50 in the experiment on Enterovirus 68 was < 0.1 µM; with polio virus Sabin 1, < 0.1 µM; with coxsackie B3 virus it was < 0.1 µM; in the experiment on Enterovirus 6, < 0.1 µM; in the experiment on coxsackie B2 virus, < 0.01 µM; in the experiment on Enterovirus 71 it was < 0.1 µM. Besides, the IC50 in the experiment with coxsackie B 4 virus was < 0.1 µM; in the experiment on Enterovirus 30 it was < 0.1 µM; with coxsackie B1 virus, < 0.01 µM; in the experiment on coxsackie B5virus, < 0.1 µM.
For `COc1ccc(-c2c(C)nn3c(NCc4ccc(C)o4)nc(C)nc23)cc1OC` [Example 23, 8-(3,4-dimethoxyphenyl)-2,7-dimethyl-N-[(5-methyl-2-furyl)methyl]pyrazolo[1,5-a][1,3,5]triazin-4-amine], the IC50 was < 0.1 µM in the experiment on Enterovirus 68; < 0.01 µM with polio virus Sabin 1; < 0.1 µM in the experiment on coxsackie B3 virus; < 0.1 µM in the experiment with Enterovirus 6; < 0.1 µM with coxsackie B2 virus; < 0.1 µM in the experiment with Enterovirus 71. Further, the IC50 was < 0.01 µM in the experiment on coxsackie B 4 virus, < 0.1 µM in the experiment with Enterovirus 30, < 0.01 µM in the experiment with coxsackie B1 virus and < 0.1 µM in the experiment on coxsackie B5virus.
For `COc1ccc(-c2c(C)nn3c(NCC4CCCO4)nc(C)nc23)cc1OC` (stereo not shown) [Example 18, 8-(3,4-dimethoxyphenyl)-2,7-dimethyl-N-(tetrahydrofuran-2-ylmethyl)pyrazolo[1,5-a][1,3,5]triazin-4-amine], the IC50 in the experiment on Enterovirus 68, in the experiment on polio virus Sabin 1, in the experiment on coxsackie B3 virus, in the experiment with Enterovirus 6, in the experiment with coxsackie B2 virus and with Enterovirus 71 was < 1 µM in each case. Besides, the IC50 in the experiment with coxsackie B 4 virus, with Enterovirus 30, with coxsackie B1 virus and in the experiment on coxsackie B5virus was < 1 µM in each case.
Turning to `COc1ccc(-c2c(C)nn3c(NCc4ccc(O)cc4)nc(C)nc23)cc1OC` [Example 17, 4-[[[8-(3,4-dimethoxyphenyl)-2,7-dimethyl-pyrazolo[1,5-a][1,3,5]triazin-4-yl]amino]methyl]phenol], the IC50 in the experiment on Enterovirus 68 was < 0.1 µM; in the experiment on polio virus Sabin 1, < 0.01 µM; with coxsackie B3 virus, < 0.1 µM; with Enterovirus 6 it was < 0.1 µM; in the experiment on coxsackie B2 virus it was < 0.01 µM; with Enterovirus 71, < 0.01 µM. The IC50 in the experiment with coxsackie B 4 virus was < 0.1 µM; in the experiment with Enterovirus 30, < 0.1 µM; in the experiment with coxsackie B1 virus, < 0.01 µM; in the experiment on coxsackie B5virus it was < 0.01 µM.
For the compound `COC(=O)NS(=O)(=O)c1ccc(CNc2nc(C)nc3c(-c4ccc(OC)c(OC)c4)c(C)nn23)cc1` [Example 24, methyl N-[4-[[[8-(3,4-dimethoxyphenyl)-2,7-dimethyl-pyrazolo[1,5-a][1,3,5]triazin-4-yl]amino]methyl]phenyl]sulfonylcarbamate], the IC50 is < 1 µM with Enterovirus 68; < 1 µM with polio virus Sabin 1; > 1 µM in the experiment on coxsackie B3 virus; > 1 µM with Enterovirus 6; < 1 µM in the experiment with coxsackie B2 virus; < 1 µM in the experiment with Enterovirus 71. In addition, the IC50 was < 1 µM with coxsackie B 4 virus, > 1 µM with Enterovirus 30, > 1 µM in the experiment on coxsackie B1 virus and > 1 µM in the experiment on coxsackie B5virus.
`COc1ccc(CNc2nc(C)nc3c(-c4ccc(OC)c(OC)c4)c(C)nn23)cn1` [Example 13, 8-(3,4-dimethoxyphenyl)-N-[(6-methoxy-3-pyridyl)methyl]-2,7-dimethyl-pyrazolo[1,5-a][1,3,5]triazin-4-amine]: the 50% inhibitory concentration (IC50) with Enterovirus 68 was < 0.1 µM; in the experiment with polio virus Sabin 1, < 0.01 µM; with coxsackie B3 virus, < 0.1 µM; in the experiment on coxsackie B2 virus, < 0.1 µM; in the experiment on Enterovirus 71, < 0.1 µM; with coxsackie B 4 virus, < 0.1 µM. Moreover, the values for the half-inhibitory concentration (IC50) in the experiment with Enterovirus 30, with coxsackie B1 virus and in the experiment with coxsackie B5virus were < 0.01 µM, < 0.01 µM and < 0.1 µM, respectively.
With `COc1ccc(-c2c(C)nn3c(NCc4ccc(F)cc4)nc(C)nc23)cc1OC` [Example 1, 8-(3,4-dimethoxyphenyl)-N-[(4-fluorophenyl)methyl]-2,7-dimethyl-pyrazolo[1,5-a][1,3,5]triazin-4-amine], the IC50 with polio virus Sabin 1 is < 0.01 µM; with coxsackie B3 virus, < 1 µM; with Enterovirus 6, < 1 µM; with coxsackie B2 virus it was < 0.01 µM; with Enterovirus 71, < 0.01 µM; in the experiment on Enterovirus 30, < 0.1 µM. The IC50 with coxsackie B1 virus and in the experiment with coxsackie B5virus was < 0.1 µM in each case.
